Assay results reported in the supplement of paper PMC11061612.

What was measured:
Experiment in all cases: combination Emax (second highest fraction inhibited in the dose matrix, 72 h); higher = more inhibition; extreme values may be limits of the assay
[1] = tested on: NCI-H1341 (Small Cell Lung Carcinoma)
Summary of the method: (§1)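 After 24 hours at 37°C and 5% CO2 in 1536-well plates, cells in DMEM/F12 or RPMI plus 10% FBS received two-drug dose matrices for 72 hours. Viability came from CellTiter-Glo 2.0 luminescence and was scaled as inhibition, anchored at 0 by vehicle wells and at 1 by blank wells. Combination Emax is taken as the second-highest inhibition in the matrix, and Bliss excess as the observed combination effect less EA + EB − EA·EB, with EA and EB the single-agent effects.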

[2] = tested on: SiHa (Cervical Carcinoma)
Summary of the method: as §1

[3] = tested on: P30-OHK (B-Lymphoblastic Leukemia)
Summary of the method: as §1

[4] = tested on: CL-11 (Colorectal Carcinoma)
Summary of the method: as §1

[5] = tested on: C-33-A (Cervical Carcinoma)
Summary of the method: as §1

[6] = tested on: RCC-JW (Kidney Carcinoma)
Summary of the method: as §1

[7] = tested on: IST-MEL1 (Melanoma)
Summary of the method: as §1

[8] = tested on: NCI-H2373 (Mesothelioma)
Summary of the method: as §1

[9] = tested on: SKG-IIIa (Cervical Carcinoma)
Summary of the method: as §1

[10] = tested on: IA-LM (Non-Small Cell Lung Carcinoma)
Summary of the method: as §1

[11] = tested on: AM-38 (Glioblastoma)
Summary of the method: as §1

[12] = tested on: COR-L88 (Small Cell Lung Carcinoma)
Summary of the method: as §1

[13] = tested on: SUP-M2 (T-Cell Non-Hodgkin's Lymphoma)
Summary of the method: as §1

[14] = tested on: ES6 (Ewing's Sarcoma)
Summary of the method: as §1

[15] = tested on: LCLC-103H (Non-Small Cell Lung Carcinoma)
Summary of the method: as §1

[16] = tested on: GAK (Melanoma)
Summary of the method: as §1

[17] = tested on: SAT (Head and Neck Carcinoma)
Summary of the method: as §1

[18] = tested on: LS-1034 (Colorectal Carcinoma)
Summary of the method: as §1

[19] = tested on: NCI-H1876 (Small Cell Lung Carcinoma)
Summary of the method: as §1

[20] = tested on: NCI-H596 (Other Solid Carcinomas)
Summary of the method: as §1

Row | Compound | combination Emax [1] | combination Emax [2] | combination Emax [3] | combination Emax [4] | combination Emax [5] | combination Emax [6] | combination Emax [7] | combination Emax [8] | combination Emax [9] | combination Emax [10] | combination Emax [11] | combination Emax [12] | combination Emax [13] | combination Emax [14] | combination Emax [15] | combination Emax [16] | combination Emax [17] | combination Emax [18] | combination Emax [19] | combination Emax [20]
1 | Cc1c2c(nn1C)CSCc1cc(n(C)n1)CSc1cc(c3ccccc3c1)OCCCc1c(C(=O)O)n(C)c3c-2c(Cl)ccc13 [AZD5991] + C=CCn1c(=O)c2cnc(Nc3ccc(N4CCN(C)CC4)cc3)nc2n1-c1cccc(C(C)(C)O)n1 [AZD1775] (first compound max 1 µM, partner max 1 µM) | 0.832 | 0.314 | 0.875 | 0.507 | 0.945 | 0.279 | 0.556 | 0.394 | 0.377 | 0.265 | 0.53 | 0.744 | 1 | 0.386 | 0.523 | 0.802 | 0.829 | 0.481 | 0.992 | 0.289
2 | Cc1c2c(nn1C)CSCc1cc(n(C)n1)CSc1cc(c3ccccc3c1)OCCCc1c(C(=O)O)n(C)c3c-2c(Cl)ccc13 [AZD5991] + CC1(C)CCC(CN2CCN(c3ccc(C(=O)NS(=O)(=O)c4ccc(NCC5CCOCC5)c([N+](=O)[O-])c4)c(Oc4cnc5[nH]ccc5c4)c3)CC2)=C(c2ccc(Cl)cc2)C1 [Venetoclax] (first compound max 1 µM, 7x7, partner max 1 µM) | 0.634 | 0.137 | 0.996 | 0.137 | 0.484 | 0.23 | 0.2 | 0.161 | 0.251 | 0.317 | 0.597 | 0.817 | 0.994 | 0.255 | 0.145 | 0.523 | 0.703 | 0.152 | 0.881 | 0.289
3 | Cc1c2c(nn1C)CSCc1cc(n(C)n1)CSc1cc(c3ccccc3c1)OCCCc1c(C(=O)O)n(C)c3c-2c(Cl)ccc13 [AZD5991] + CN(C)CCCOc1ccc(-c2ccc3ncc4c(c3c2)n(C2CCOCC2)c(=O)n4C)cn1 [AZD0156] (first compound max 1 µM, 7x7, partner max 1 µM) | 0.379 | 0.326 | 0.71 | 0.164 | 0.245 | 0.289 | 0.196 | 0.272 | 0.218 | 0.257 | 0.677 | 0.3 | 1 | 0.279 | 0.375 | 0.266 | 0.638 | 0.217 | 0.629 | 0.328
4 | Cc1c2c(nn1C)CSCc1cc(n(C)n1)CSc1cc(c3ccccc3c1)OCCCc1c(C(=O)O)n(C)c3c-2c(Cl)ccc13 [AZD5991] + C[C@@H]1COCCN1C2=NC(=NC(=C2)C3(CC3)[S@](=N)(=O)C)C4=C5C=CNC5=NC=C4 [AZD6738] (first compound max 1 µM, 7x7, partner max 10 µM) | 0.71 | 0.318 | 0.996 | 0.645 | 0.923 | 0.547 | 0.788 | 0.551 | 0.333 | 0.389 | 0.771 | 0.671 | 1 | 0.445 | 0.531 | 0.593 | 0.79 | 0.673 | 0.97 | 0.318
5 | Cc1c2c(nn1C)CSCc1cc(n(C)n1)CSc1cc(c3ccccc3c1)OCCCc1c(C(=O)O)n(C)c3c-2c(Cl)ccc13 [AZD5991] + C[C@@H](Nc1cc(F)cc(F)c1)c1cc(C(=O)N(C)C)cc2c(=O)cc(N3CCOCC3)oc12 [AZD8186] (first compound max 1 µM, 7x7, partner max 3 µM) | 0.706 | 0.356 | 0.805 | 0.155 | 0.224 | 0.461 | 0.303 | 0.287 | 0.24 | 0.201 | 0.436 | 0.221 | 0.996 | 0.354 | 0.352 | 0.349 | 0.747 | 0.172 | 0.711 | 0.299
6 | Cc1c2c(nn1C)CSCc1cc(n(C)n1)CSc1cc(c3ccccc3c1)OCCCc1c(C(=O)O)n(C)c3c-2c(Cl)ccc13 [AZD5991] + Cc1cc2ncnn2cc1Nc1ncc2c(n1)n(C1CCOCC1)c(=O)n2C [AZD7648] (first compound max 1 µM, 7x7, partner max 10 µM) | 0.509 | 0.255 | 0.649 | 0.133 | 0.416 | 0.319 | 0.291 | 0.409 | 0.197 | 0.295 | 0.615 | 0.297 | 1 | 0.334 | 0.363 | 0.305 | 0.664 | 0.272 | 0.629 | 0.367
